Numbers after ± are expanded uncertainties.
Assay: excess molar enthalpy (molar enthalpy of mixing); xn = mol fraction of the nth substance listed
Conditions: 1273.2 K, 101 kPa, Liquid, Calvet calorimetry

For `[Sb]` [antimony] + [Sn], which excess molar enthalpy (x1 = 0.2665) is on record?
Its excess molar enthalpy is -0.257 ± 0.00287 kcal/mol.

And the excess molar enthalpy (x1 = 0.4886)?
Its excess molar enthalpy is -0.315 ± 0.00335 kcal/mol.

And the excess molar enthalpy (x1 = 0.7372)?
The excess molar enthalpy was -0.233 ± 0.00263 kcal/mol.

For `[Ni]` [nickel] + [Sb], which excess molar enthalpy (x1 = 0.2109) is on record?
Its excess molar enthalpy is -2.58 ± 0.0263 kcal/mol.

With `[Ni]` [nickel] + [Sn] as the compound, how does the excess molar enthalpy (x1 = 0.213) read?
The excess molar enthalpy was -2.29 ± 0.0232 kcal/mol.
